# According to patent US4356165A, “Bupropion radioimmunoassay, and kit” (Burroughs Wellcome Co., priority 1980, dated 1982):
# System: antisera raised by presenting a suitable bupropion variant-carrier material conjugate
# Experiment: Competition of bupropion with radiolabeled bupropion or competitor for binding to antisera
# Description: Samples of six standard solutions of bupropion in blank plasma having concentrations of 0.39 to 50 ng/ml) are pipetted (0.1 ml each) in duplicate into 12×75 mm plastic tubes. Duplicate non-specific binding (no antibody) and maximum binding tubes (no unlabeled bupropion) receive 0.1 ml blank plasma. Spiked plasma controls at several concentrations of (e.g., 1.0, 10.0, and 100 ng/ml) and plasma samples for assay (diluted into the standard range with blank plasma if necessary) are assayed in duplicate. After being placed in an ice bath, all tubes receive (in order) 0.2 ml ^3 H bupropion (416 pg. containing approximately 10^4 cpm) and 0.7 ml anti-bupropion serum (raised to a ring-functionalized immunogen according to the present invention) (at pre-determined dilutions such that approximately 40% of the ^3 H bupropion added is bound), both in assay buffer (0.05 M phosphate-bufferedisotonic saline, containing 0.01 M EDTA and 0.1% gelatin, pH 7.0). […] The supernatants, containing antibody-bound ^3 H bupropion are carefully decanted into liquid scintillation cocktail for quantitation of ^3 H. After counts (minus average non-specific binding cpm) are expressed as percentages of average maximum binding cpm, bupropion concentrations in plasma samples and spiked controls are read from a standard curve (log concentration vs percent average maximum binding).
smiles,measurement,value
"CC(NC(C)(C)C)C(=O)c1cccc(Cl)c1 (racemic) [bupropion, (±)-2-tert-butylamino-3'-chloropropiophenone]",competition with radiolabeled bupropion or radiolabeled competitor for binding to antisera,successfully compete
